Experimental data reported in patent US10350169B2, “Compositions and methods for bile acid particles” (UNIVERSITY OF UTAH RESEARCH FOUNDATION, priority 2014, dated 2019).

Key:
[1] = cited from earlier work
HepG2 cells = experiment: In vitro cytotoxicity of polymers and DOX-loaded particles, MTT assay; format: cell-based, human; details: 0.01-100 ug/mL, 24, 48 and 72 hr
Experimental: In vitro cytotoxicity of DOX-loaded particles. To evaluate the cytotoxicity of the polymers and DOX-loaded particles, samples were transfected in a dose-dependent manner and evaluated by an MTT-based cell viability assay using HepG2 cells. Cell Culture: HepG2 cells (a human hepatoma cell line) were cultured in DMEM supplemented with 10% FBS and D-glucose (4.5 g/L). Cells were grown and maintained under humidified air containing 5% CO2 at 37° C. Cell Viability: a MTT assay was used to evaluate the cell viability of bile acid-linked polymers and DOX-loaded particles. HepG2 cells were seeded into a 96-well plate at a cell density of 5×10^3 cells/well in 100 μL media. […] MTT (10 μL; 5 mg/mL) solution was then added to the wells and incubated for 4 hr. All remaining media was aspirated, and DMSO (100 μL) was added to dissolve the formazan crystals produced from living cells with 10 min incubation at 37° C. The absorbance of the cells was measured at 570 nm and their cell viability was calculated.

[2] = DOX biodistribution in tumor-bearing mice (DOX fluorescence); format: in vivo, HepG2 tumor-bearing NOD/SCID mice; details: IV injection, 4 hr, versus orally administered groups
Experimental: Biodistribution. A biodistribution study was performed in HepG2 tumor-bearing NOD/SCID mice. The major organs and intestinal tract of each mouse were collected 4 hr after administration of the formulations. The liver, kidney, heart, stomach, small intestine including duodenum, jejunum, ileum, and tumor of each mouse was collected and suspended in 70% ethanol with 0.3 N HCl. The samples were then homogenized to extract the doxorubicin, and then the samples were refrigerated for 24 hr and centrifuged to collect supernatant. For analysis, 200 μL of the supernatant was loaded in a black opaque plate and DOX fluorescence was measured using a plate reader, where the wavelengths of excitation and emission were 470 and 590 nm, respectively.

[3] = system: HepG2 xenograft mouse model; experiment: In vivo efficacy in tumor bearing animal model
Experimental: In vivo efficacy in a tumor bearing animal model. The in vivo anticancer efficacy of free DOX and the DDP/H-TCA composition was evaluated in a HepG2 xenograft mouse model. Animals which were treated with free DOX delivered via both orally and via IV administration were used as a control group, and DDP/H-TCA compositions were administered orally every 3 days at a dose of 4 mg DOX/kg, up to 18 days.
HepG2 cells (5×10^6 cells/mL) in 100 μL PBS were injected subcutaneously into the back of each mouse. When the tumor size reached approximately 100-150 mm^3, each mouse received an oral administration of PBS, 4 mg/kg DOX, or 4 mg/kg DOX in a DDP/H-TCA composition, once every three days. In addition, an equal amount of doxorubicin was intravenously (IV) administered in a control group. Tumors were measured every three days with a digital caliper and the tumor volume was calculated using the equation shown below.
To achieve a relatively high concentration, the lyophilized powder of DDP/H-TCA particles was reconstituted in DI water just prior to in vivo administration. First, the tumor growth inhibition efficacy of bile acid-coated DOX-loaded particles was investigated in a mouse xenograft model. Doxorubicin (DOX) at a dose of 4 mg/kg, or an equivalent amount of DOX formulated as DDP/H-TCA particles, was prepared and delivered via IV or oral administration every 3 days up to 18 days to monitor tumor progression. DOX-loaded particles without a bile acid (i.e. no TCA) were also tested as a non-targeted control formulation to evaluate the tumor inhibition efficacy of the TCA. Because tumors in the PBS control group were quite aggressive and reached over 10% of the animals' body weight around day 18, all treatments were terminated and all mice were sacrificed at day 18.

HT-29 xenograft = experiment: In vivo therapeutic efficacy in tumor bearing animal model; design: species or system NOD/SCID mice; details: oral, 10 mg/kg DOX, over 12 days
Experimental: In vivo therapeutic efficacy in a tumor bearing animal model. The in vivo anticancer efficacy of free DOX, the cationic DOX-loaded liposome without a bile acid coating (“DOX-liposome”), and the anionic DOX-loaded liposome with the CS-TCA coating (“DL/CS-TCA”) was evaluated in a xenograft mouse model. HT-29 cells (1×10^7 cells per mouse) were subcutaneously injected into the back of NOD/SCID mice (n=3). When the tumor size reached approximately 100-150 mm^3, each mouse received an oral administration of PBS, 10 mg/kg free DOX, 10 mg/kg DOX in the DOX-liposome composition, or 10 mg/kg DOX in the DL/CS-TCA composition, once every two days. Tumor size and body weight were measured every 2 days. Tumor volumes were measured with a digital caliper and the tumor volume was calculated using the equation shown below. Tumor volume=(Length×width^2)/2

[4] = cited from earlier work; remark: listed apart in the source
caco-2 cells = experiment: In vitro cellular uptake of insulin-Ce6 liposomes; format: cell-based, Human; details: insulin-Ce6 10 ug/mL, 4 hr
Experimental: In vitro cellular uptake. Human epithelial colorectal adenocarcinoma cells (caco-2 cells) were maintained in Dulbeco's Modified Eagle's Medium (DMEM) with 1% penicillin-streptomycin and 10% FBS in a humidified standard incubator at 37° C. with a 5% CO2 atmosphere. Prior to testing, cells (1×10^5 cells/mL) that were grown as a monolayer were harvested via trypsinization using a 0.25% (wt/vol) trypsin/0.03% (wt/vol) EDTA solution. Caco-2 cells suspended in DMEM were seeded onto each well plate and cultured for 24 hours prior to the in vitro cell testing. The cellular uptake of the liposomes (provided in an amount equivalent to an insulin-Ce6 concentration of 10 ug/mL, treated for 4 hr) was monitored by FACSCalibur Flow Cytometer (Becton Dickinson, USA). In addition, the localization of the liposome was examined by fluorescence of the insulin-Ce6 loaded liposome using a confocal laser scanning microscope.

Molecule | oral bioavailability [1] | cytotoxicity (cell viability) (HepG2 cells) | DOX concentration in heart and liver tissues [2] | body weight ([3]; 4 mg DOX/kg every 3 days up to 18 days) | inhibition of tumor growth ([3]; IV, 4 mg/kg every 3 days, up to 18 days) | increase in tumor volume ([3]; oral, 4 mg DOX/kg every 3 days, up to 18 days) | change in tumor volume (HT-29 xenograft) | relative body weight (HT-29 xenograft) | pKa [4] | labeled insulin present in cells (caco-2 cells)
COc1cccc2c1C(=O)c1c(O)c3c(c(O)c1C2=O)C[C@@](O)(C(=O)CO)C[C@@H]3O[C@H]1C[C@H](N)[C@H](O)[C@H](C)O1 [DOX, doxorubicin] | about 5% | highest dose-dependent cytotoxicity | higher concentration of DOX was seen in the heart and liver tissues | no significant weight loss | greatest inhibition of tumor growth | ~1400% | not statistically better at reducing tumor volume than the buffer | decrease slightly | 7.2-8.0 | 
free insulin: Ce6-labeled insulin given without liposomes |  |  |  |  |  |  |  |  |  | relatively little labeled insulin present
